According to PubChem BioAssay (NCI):
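Protocol summary: plate cells (96-well), add compound at 5 concentrations, incubate 48 h, interpolate endpoints linearly. Definition used: TGI = concentration required for complete inhibition of growth.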

Legend:
Assay in all cases: inhibition of tumour cell growth, NCI panel, 48 h
[1] = tested on: 786-0 renal
[2] = tested on: A498 renal
[3] = tested on: A549 NSCLC
[4] = tested on: ACHN renal
[5] = tested on: CAKI-1 renal
[6] = tested on: CCRF-CEM leukemia
[7] = tested on: COLO 205 colon
[8] = tested on: DLD-1 colon
[9] = tested on: DMS 114 small cell lung
[10] = tested on: DMS 273 small cell lung
[11] = tested on: EKVX NSCLC
[12] = tested on: HCC-2998 colon
[13] = tested on: HCT-116 colon
[14] = tested on: HL-60(TB) leukemia
[15] = tested on: HOP-18 NSCLC
[16] = tested on: HOP-62 NSCLC
[17] = tested on: HOP-92 NSCLC
[18] = tested on: HT29 colon
[19] = tested on: IGROV1 ovarian
[20] = tested on: K-562 leukemia
[21] = tested on: KM12 colon
[22] = tested on: KM20L2 colon
[23] = tested on: LOX IMVI melanoma
[24] = tested on: LXFL 529 NSCLC
[25] = tested on: M14 melanoma
[26] = tested on: M19-MEL melanoma
[27] = tested on: MALME-3M melanoma
[28] = tested on: MOLT-4 leukemia
[29] = tested on: NCI-H226 lung
[30] = tested on: NCI-H23 lung
[31] = tested on: NCI-H522 lung
[32] = tested on: OVCAR-3 ovarian
[33] = tested on: OVCAR-4 ovarian
[34] = tested on: OVCAR-5 ovarian
[35] = tested on: OVCAR-8 ovarian
[36] = tested on: RXF 393 renal
[37] = tested on: RXF-631 renal
[38] = tested on: SF-268 CNS
[39] = tested on: SF-295 CNS
[40] = tested on: SF-539 CNS
[41] = tested on: SK-MEL-2 melanoma
[42] = tested on: SK-MEL-28 melanoma
[43] = tested on: SK-MEL-5 melanoma
[44] = tested on: SK-OV-3 ovarian
[45] = tested on: SN12C renal
[46] = tested on: SNB-19 CNS
[47] = tested on: SNB-75 CNS
[48] = tested on: SNB-78 CNS
[49] = tested on: SR leukemia
[50] = tested on: SW-620 colon
[51] = tested on: TK-10 renal
[52] = tested on: U251 CNS
[53] = tested on: UACC-257 melanoma
[54] = tested on: UACC-62 melanoma
[55] = tested on: UO-31 renal
[56] = tested on: XF 498 CNS
[57] = tested on: HCT-15 colon
[58] = tested on: NCI-H460 lung
[59] = tested on: RPMI-8226 leukemia

CCCCCCC1=NOC(C(c2cc[nH]c2)N(C)[C@H](C(=O)OC)C(C)C)C1 (stereo not given in full) showed a TGI [1] of over 100 µM, a TGI [2] of over 100 µM and a TGI [3] of over 100 µM. The TGI [4] was over 100 µM, the TGI [5] was over 100 µM and the TGI [6] was 53.9 µM. It also gave a TGI [7] of 32.2 µM, a TGI [8] of over 100 µM and a TGI [9] of over 100 µM. It also gave a TGI [10] of over 100 µM, a TGI [11] of over 100 µM and a TGI [12] of over 100 µM. The TGI [13] was over 100 µM, the TGI [14] was 63.7 µM and the TGI [15] was over 100 µM. The TGI [16] was over 100 µM, the TGI [17] was over 100 µM and the TGI [18] was over 100 µM. The TGI [19] was over 100 µM, the TGI [20] was over 100 µM and the TGI [21] was 63.6 µM. It also gave a TGI [22] of over 100 µM, a TGI [23] of 74.6 µM and a TGI [24] of over 100 µM. For the same compound, the TGI [25] was over 100 µM, the TGI [26] was over 100 µM and the TGI [27] was over 100 µM. It also gave a TGI [28] of 62.7 µM, a TGI [29] of over 100 µM and a TGI [30] of over 100 µM. It also gave a TGI [31] of 33.9 µM, a TGI [32] of 77.6 µM and a TGI [33] of over 100 µM. For the same compound, the TGI [34] was over 100 µM, the TGI [35] was over 100 µM and the TGI [36] was over 100 µM. The TGI [37] was over 100 µM, the TGI [38] was over 100 µM and the TGI [39] was over 100 µM. The TGI [40] was over 100 µM, the TGI [41] was 65.9 µM and the TGI [42] was over 100 µM. The TGI [43] was over 100 µM, the TGI [44] was over 100 µM and the TGI [45] was 51.6 µM. It also gave a TGI [46] of over 100 µM, a TGI [47] of over 100 µM and a TGI [48] of 87.1 µM. For the same compound, the TGI [49] was 91.6 µM, the TGI [50] was 68 µM and the TGI [51] was over 100 µM. It also gave a TGI [52] of over 100 µM, a TGI [53] of over 100 µM and a TGI [54] of over 100 µM. For the same compound, the TGI [55] was over 100 µM and the TGI [56] was over 100 µM.
Work on N#CC(C(=O)C(N)=O)c1ccccc1Cl (stereo not given) yielded a TGI [1] of over 100 µM, a TGI [2] of over 100 µM and a TGI [3] of over 100 µM. For the same compound, the TGI [4] was over 100 µM, the TGI [5] was over 100 µM and the TGI [6] was over 100 µM. For the same compound, the TGI [7] was over 100 µM, the TGI [8] was over 100 µM and the TGI [9] was over 100 µM. For the same compound, the TGI [10] was over 100 µM, the TGI [11] was over 100 µM and the TGI [12] was over 100 µM. For the same compound, the TGI [13] was over 100 µM, the TGI [57] was over 100 µM and the TGI [14] was over 100 µM. For the same compound, the TGI [15] was over 100 µM, the TGI [18] was over 100 µM and the TGI [19] was over 100 µM. The TGI [20] was over 100 µM, the TGI [21] was over 100 µM and the TGI [22] was over 100 µM. The TGI [23] was over 100 µM, the TGI [24] was over 100 µM and the TGI [25] was over 100 µM. It also gave a TGI [26] of over 100 µM, a TGI [27] of over 100 µM and a TGI [28] of over 100 µM. It also gave a TGI [29] of over 100 µM, a TGI [30] of over 100 µM and a TGI [58] of over 100 µM. It also gave a TGI [32] of over 100 µM, a TGI [33] of over 100 µM and a TGI [34] of over 100 µM. For the same compound, the TGI [35] was over 100 µM, the TGI [59] was over 100 µM and the TGI [36] was over 100 µM. It also gave a TGI [37] of over 100 µM, a TGI [38] of over 100 µM and a TGI [39] of over 100 µM. For the same compound, the TGI [40] was over 100 µM, the TGI [41] was over 100 µM and the TGI [42] was over 100 µM. For the same compound, the TGI [43] was over 100 µM, the TGI [44] was over 100 µM and the TGI [45] was over 100 µM. It also gave a TGI [46] of over 100 µM, a TGI [47] of over 100 µM and a TGI [50] of over 100 µM. For the same compound, the TGI [51] was over 100 µM, the TGI [52] was over 100 µM and the TGI [53] was over 100 µM. It also gave a TGI [54] of over 100 µM, a TGI [55] of over 100 µM and a TGI [56] of over 100 µM.
